In experiment [1] the test system is Aspergillus flavus. The experiment is described as follows: Antifungal activity against Aspergillus flavus assessed as inhibition of mycelial growth measured after 72 hr at 28 +/- 1 degC. Format: functional, organism-based.
For experiment [2], the system named is Frankliniella occidentalis. The experiment is described as follows: Insecticidal activity against Frankliniella occidentalis (western flower thrips) assessed as mortality at 1 ul/45mL. The class given is functional.
Experiment [3] concerns Aspergillus flavus. As to the kind of experiment: Antifungal activity against Aspergillus flavus assessed as inhibition of mycelial growth measured after 72 hr at 0.8 mg/mL at 28 +/- 1 degC. The class given is functional, organism-based.

Consider three compounds from ChEMBL document CHEMBL3046294, “Fungicidal properties of the essential oil of Hesperozygis marifolia on Aspergillus flavus link” (2011).

Activity calls are given as the source filed them. The calls are words filed in the database; no cut-off is given here.

`CC(C)[C@H]1CC[C@H](C)CC1=O` (relative stereo): in the experiment on Aspergillus flavus [1], the inhibition entry was “inactive”.

On to `CC(C)=C1CC[C@@H](C)CC1=O` [PULEGONE], for which the mortality in experiment [2] came to 100%. In the experiment with Aspergillus flavus [3], the inhibition entry was “Active”.

Consider `CC(C)[C@H]1CC[C@@H](C)CC1=O` (relative stereo), for which the inhibition entry in the experiment on Aspergillus flavus [1] was “inactive”.

The mortality is the percentage killed.
